Data on 73 molecules can be found in the SangsterLogP compilation.

As usually defined, the logD is lipophilicity at a set pH, counting ionised and neutral species. The term logP denotes a log measure of how a compound divides between an organic and an aqueous phase.

Series [1] is described as follows: method code SF-AS, from DOI: 10.1016/0009-2797(77)90097-7, PMID: 407012. To be noted: pH 7.0.
Series [2] in a line: method code SF, from Brown, J.; Yu, N.; Cory, M.; Bicknell, R.; Taylor, D. (1978). In vivo evaluation of the radiosensitizing and cytotoxic properties of newly synthesized electron-affinic drugs. 3, 206-211.
Series [3] is described as follows: method code SF-HPLC, from DOI: 10.1002/etc.5620110812.
Series [4] in a line: method code SF-HPLC, from DOI: 10.1002/ps.2780190203. To be noted: pH 1.0.
Assay in series [5]: not given
This is another data set of the same source.

Series [6] can be described thus: method code SF-AS, from DOI: 10.1248/cpb.35.377.
Series [7] is described as follows: method code SF-HPLC, from DOI: 10.1016/s0021-9673(01)83534-2.
A short description of series [8]: from Rich, R. (1990). Partition coefficients of quinones and their relation to biochemical reactivity. In Lenaz, G. (Ed.), Highlights in Ubiquinone Research: Proceedings of the International Symposium, ….
Series [9] in a line: method code SF-AS, from DOI: 10.1016/0378-5173(80)90117-9.
Series [10] can be described thus: method code SF-TN, from DOI: 10.2116/analsci.13.897. To be noted: pH 2.0.
Series [11] in a line: method code SF-GLC, from DOI: 10.1002/jps.2600600712, PMID: 4398902.
Series [12] is described as follows: method code SF, from DOI: 10.1002/ps.2780340212. To be noted: pH 7.0.
A short description of series [13]: method code SF-AS, from DOI: 10.1021/jm00299a013, PMID: 5458368.
Series [14] in a line: method code SF-AS, from DOI: 10.1111/j.1440-1681.1976.tb00621.x, PMID: 10116.
Series [15] is described as follows: method code SF-AS, from DOI: 10.1016/0378-5173(93)90388-v.
A short description of series [16]: method code SF-AS, from DOI: 10.1248/cpb.26.2824.
Assay in series [17]: not given
The source holds these as a separate data set.

A short description of series [18]: method code SF, from DOI: 10.2307/3575246, PMID: 7367588.
Series [19] can be described thus: from Bazaco, J.; Coca, C. (1989). Relation between the partition coefficient (Log Pow) and capacity factor (Log k') derived from reversed-phase HPLC of a series of benzaldehyde derivatives. Ciencia e ….
The nature of series [20]: method code SF-GLC, from DOI: 10.1021/je00020a050.
Series [21] in a line: method code SF, from DOI: 10.1016/j.tca.2004.05.019.
A short description of series [22]: method code SF-RC, from DOI: 10.1002/ps.2780300102. To be noted: pH 1.0.
Assay in series [23]: not given
The source holds these as a separate data set.

Assay in series [24]: not given
This is another data set of the same source.

Assay in series [25]: not given
The source holds these as a separate data set.

Assay in series [26]: not given
This is another data set of the same source.

Assay in series [27]: not given
This is another data set of the same source.

Series [28] in a line: method code SF-AS, from DOI: 10.1016/0731-7085(96)01773-6, PMID: 8877846.
Assay in series [29]: not given
This is another data set of the same source.

A short description of series [30]: method code SF-CR, from DOI: 10.1248/cpb.21.2417, PMID: 4779830. The note with it: pH 6.0.
Series [31] in a line: method code SF, from Dai, J-Y.; Han, S.; Wang, L. (2000). Prediction of partition properties of substituted benzaldehydes using different structural parameters. Zhongguo Huanjing Kexue (China Environmental Science), ….
A short description of series [32]: method code SF-AS, from DOI: 10.1016/j.bmc.2008.07.057, PMID: 18706818. The note with it: pH 7.4.
Assay in series [33]: not given
This is another data set of the same source.

Assay in series [34]: not given
The source holds these as a separate data set.

A short description of series [35]: method code SF-AS, from DOI: 10.1016/s0021-9673(01)89384-5.
Series [36] is described as follows: method code SF-RC, from DOI: 10.1111/j.2042-7158.1987.tb06949.x, PMID: 2882008. To be noted: pH 1.0.

In turn, `CN(C)c1nc(Cl)nc(N(C)C)n1` returned a logD in series [1] of 2.31.
Consider `COCC(=O)Cn1ccnc1[N+](=O)[O-]`, for which the logP in [2] is -0.26.
With `N#CSCSc1nc2ccccc2s1`, the logP in series [3] came out at 3.12.
`CON=C(C#N)C(=O)N[C@@H](CS(C)(=O)=O)C(=O)O` came in with a logP of -0.73.
In [4], `O=C(O)COc1cc(Cl)cc(Cl)c1` yielded a logD of 2.84.
`O=C(O)Cn1c(=O)sc2cccc(Cl)c21` gave a logP in series [5] of 2.21.
In series [6], `Oc1ccc2ccccc2c1` yielded a logP of 2.75.
For the molecule `COC(=O)c1cc([N+](=O)[O-])cc([N+](=O)[O-])c1`, in series [7], the logP is 1.84.
Turning to `CC1=C(C)C(=O)C=CC1=O`, the logP in series [8] is 1.23.
In series [9], `CCCCc1ccc(O)cc1` came in with a logP of 3.65.
Regarding `CCCC=CC(=O)O`, the logD in series [10] is 1.69.
For the molecule `O=C1CCCCCCN1`, the logP in series [11] came out at 0.24.
Turning to `CCCCc1c(C)[nH]c(NCC)nc1=O`, the logD in [12] turned out to be 2.2.
Consider `Cc1ncc([N+](=O)[O-])n1CCS(=O)(=O)C(C)C`, for which, in [13], the log partition coefficient (logP) stood at 0.13.
Turning to `CCC(Cl)(CC)C(=O)NC(N)=O`, the logP in series [14] came to 1.4.
Take `CC1CCC(=O)N1C` (stereo not drawn): the logP in series [15] was -0.07.
`O=C(O)c1ccccc1[N+](=O)[O-]` returned a logP in series [16] of 1.46.
`N#CCc1ccccc1` registered a logP in series [17] of 1.47.
The molecule `CS(=O)CCn1ccnc1[N+](=O)[O-]` (stereo not drawn) came in with a logP in series [18] of -1.22.
For `COc1cccc(C=O)c1`, in series [19], the logP was 1.71.
In the case of `COc1cc(Cl)c(Cl)cc1OC`, in [20], the logP was found to be 3.11.
As for `Cc1ssc(=S)c1CCC(=O)O`, the logP in series [21] is 2.04.
As for `COc1ccc(C=O)cc1OC`, the logP in series [19] was found to be 1.22.
Turning to `O=C(Cn1ccnc1[N+](=O)[O-])NCC(O)CO` (stereo not drawn), the logP in series [18] was -1.85.
`CN(CO)c1nc(N(C)CO)nc(N(C)CO)n1` gave a logD in series [1] of 0.4.
In the case of `COc1c(O)ccc(O)c1OC`, in series [8], the logP stood at 0.61.
In [15], `CCN1CCCC1=O` gave a logP of -0.04.
Molecule `CS(=O)(=O)c1ccc(CC(=O)O)cc1` yielded a logD in series [22] of 0.06.
For `CC(=O)c1ccccc1`, in [17], the logP was 1.71.
In the case of `COc1c(Cl)cc(Cl)cc1Cl`, the logP in series [20] worked out at 4.02.
In series [9], `COc1ccc(O)cc1` showed a logP of 1.57.
Molecule `C1CCCCCCC1` displayed a logP in series [23] of 3.28.
In series [24], `O=C1OC(=O)c2c(Cl)c(Cl)c(Cl)c(Cl)c21` showed a logP of 3.09.
In turn, `O=C(O)C1CC=CCC1` (stereo not drawn) showed a logD in series [10] of 1.69.
In the case of `CCS(=O)(=O)CCn1ccnc1[N+](=O)[O-]`, the logP in series [2] was -0.58.
In series [25], `CCn1ccc(=O)c(O)c1` registered a logP of -0.4.
In series [24], `O=[N+]([O-])c1ccc(Oc2c(Cl)cc(Cl)cc2Cl)cc1` came in with a logP of 4.97.
`CS(=O)(=O)c1cccc(NC(N)=O)c1` showed a logD in series [12] of -0.1.
In series [26], `COc1c(Cl)cc(Cl)c(Cl)c1Cl` came in with a logP of 4.75.
Consider `CCCCOCC`, for which, in [27], the logP is 2.03.
Turning to `O=C(O)Cc1ccc(Cl)cc1`, the logD in series [22] was 2.2.
Molecule `C#CCN(C)C(C)Cc1ccc(F)cc1` (stereo not drawn) yielded a logP in [28] of 3.
In [23], `CCC(C)CC` had a logP of 2.8.
`O=Cc1ssc(=S)c1CCC(=O)O` showed a logP in series [21] of 2.73.
`Sc1nc2ccccc2s1` gave a logP in series [3] of 2.41.
Turning to `COCCCNc1nc(NC(C)C)nc(SC)n1`, the logP in series [29] was determined as 2.96.
In the case of `CN(C)S(=O)(=O)c1ccc(N)cc1`, the logD in series [30] was determined as 0.67.
Consider `CC(C)=NNc1ccc([N+](=O)[O-])cc1[N+](=O)[O-]`, for which, in series [7], the logP amounted to 3.05.
On to `CCCC(CO)N1C=NC2C(N)=NC=NC21` (stereo not drawn), for which the logP in [27] was determined as 0.66.
With `CON=C(C#N)C(=O)N[C@@H](CSC)C(=O)O`, the logP is 0.52.
The molecule `O=C(O)Cc1ccc(Cl)c(Cl)c1` displayed a logP in series [5] of 2.9.
For `O=Cc1ccc(Cl)c(Cl)c1`, in [31], the logP is 2.53.
On to `CC1(C(N)=O)CCC=[N+]1[O-]` (stereo not drawn), for which, in series [32], the logD was -1.8.
`S=C=Nc1cccc2c(N=C=S)cccc12` returned a logP in series [33] of 4.43.
Turning to `Cc1ncc([N+](=O)[O-])n1CCS(C)(=O)=O`, the logP in series [13] is -0.82.
`CCC1(C(N)=O)CCC=[N+]1[O-]` (stereo not drawn) returned a logD in series [32] of -1.25.
As for `OCc1cc(Cl)cc(Cl)c1`, the logP in [6] is 2.9.
On to `Cc1cccc(C)n1`, for which the log partition coefficient (logP) in series [34] turned out to be 1.63.
In the case of `CCCCn1ccc(=O)c(O)c1`, the logP in series [25] is 0.72.
`CSc1nc(N=[N+]=[N-])nc(NC(C)C)n1` had a logP in series [29] of 3.27.
With `O=C(O)COc1ccc(Oc2ccc(Cl)cc2Cl)cc1`, the logD in series [4] amounted to 4.51.
Take `O=C1CCCCCCCN1`: the logP in series [11] was found to be 0.67.
On to `COc1c(Cl)c(Cl)cc(Cl)c1Cl`, for which the logP in [26] is 4.68.
`O=C1O[C@H]([C@@H](O)CO)C(O)=C1O` had a logP in series [28] of -1.84.
As to `c1ccc(-c2nccnn2)cc1`, the logP in series [35] was 1.71.
For the molecule `CC(=O)Nc1ccc(C(=O)O)c(O)c1`, the logD in series [36] stood at 1.62.
The molecule `CN(c1ccccn1)S(=O)(=O)c1ccc(N)cc1` had a logD in series [30] of 1.3.
The molecule `S=C=Nc1ccc(N=C=S)cc1` returned a logP in series [33] of 2.8.
On to `O=C(O)Cc1cccc(I)c1`, for which the logD in series [36] turned out to be 2.49.
`CCC(CC)(OC)C(=O)NC(N)=O` yielded a logP in series [14] of 0.96.
Consider `CCCCC(C)=O`, for which the logP in [34] is 1.39.
The molecule `Cc1ccccc1C(=O)O` showed a logP in series [16] of 2.18.
With `Cc1ccc(C)c(C=O)c1`, the logP in series [31] was 1.91.
